{"source": "patent US20210238192A1", "about": "“VASCULAR ADHESION PROTEIN-1 (VAP-1) MODULATORS AND THERAPEUTIC USES THEREOF” (Blade Therapeutics, Inc., priority 2018, published 2021)", "assay_type_in_all_cases": "biochemical", "key": {"[1]": {"molecular_target": "T1, Human MAO-A (Homo sapiens, UniProt P21397)", "T1 sequence (P21397 1-527)": "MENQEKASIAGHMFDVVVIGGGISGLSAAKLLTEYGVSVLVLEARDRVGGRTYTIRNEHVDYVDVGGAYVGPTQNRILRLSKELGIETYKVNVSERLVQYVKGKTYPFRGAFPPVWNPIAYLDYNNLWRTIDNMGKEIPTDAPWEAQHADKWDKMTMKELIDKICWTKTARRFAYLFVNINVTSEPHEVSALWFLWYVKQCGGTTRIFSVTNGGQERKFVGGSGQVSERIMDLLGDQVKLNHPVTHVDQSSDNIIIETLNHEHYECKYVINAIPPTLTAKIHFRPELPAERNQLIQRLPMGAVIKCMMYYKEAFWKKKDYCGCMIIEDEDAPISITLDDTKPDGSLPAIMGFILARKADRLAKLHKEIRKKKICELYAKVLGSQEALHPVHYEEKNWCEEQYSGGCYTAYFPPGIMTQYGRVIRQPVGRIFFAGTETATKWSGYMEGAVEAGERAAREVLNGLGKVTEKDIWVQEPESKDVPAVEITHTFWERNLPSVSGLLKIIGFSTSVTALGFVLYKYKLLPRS", "assay": "MAO-A inhibition (Amplex Red continuous fluorescence assay)", "details": "30 min pre-incubation at room temp; substrate tyramine; read-out: Human MAO-A IC50", "how_it_was_run": "(§1)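 Continuous Amplex Red/HRP fluorescence read of H2O2 (ex/em 510/565 nm, 5 min). Substrates and buffers: VAP-1 benzylamine, […] sodium phosphate pH 7.4, 30 min 37° C preincubation; MAO-A tyramine and MAO-B benzylamine, same buffer, room temp; DAO histamine, 50 mM HEPES pH 7.5, room temp. IC50 from 4-parameter fit of rates.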"}, "[2]": {"molecular_target": "T2, Human DAO (Homo sapiens, UniProt P19801)", "T2 sequence (P19801 20-751)": "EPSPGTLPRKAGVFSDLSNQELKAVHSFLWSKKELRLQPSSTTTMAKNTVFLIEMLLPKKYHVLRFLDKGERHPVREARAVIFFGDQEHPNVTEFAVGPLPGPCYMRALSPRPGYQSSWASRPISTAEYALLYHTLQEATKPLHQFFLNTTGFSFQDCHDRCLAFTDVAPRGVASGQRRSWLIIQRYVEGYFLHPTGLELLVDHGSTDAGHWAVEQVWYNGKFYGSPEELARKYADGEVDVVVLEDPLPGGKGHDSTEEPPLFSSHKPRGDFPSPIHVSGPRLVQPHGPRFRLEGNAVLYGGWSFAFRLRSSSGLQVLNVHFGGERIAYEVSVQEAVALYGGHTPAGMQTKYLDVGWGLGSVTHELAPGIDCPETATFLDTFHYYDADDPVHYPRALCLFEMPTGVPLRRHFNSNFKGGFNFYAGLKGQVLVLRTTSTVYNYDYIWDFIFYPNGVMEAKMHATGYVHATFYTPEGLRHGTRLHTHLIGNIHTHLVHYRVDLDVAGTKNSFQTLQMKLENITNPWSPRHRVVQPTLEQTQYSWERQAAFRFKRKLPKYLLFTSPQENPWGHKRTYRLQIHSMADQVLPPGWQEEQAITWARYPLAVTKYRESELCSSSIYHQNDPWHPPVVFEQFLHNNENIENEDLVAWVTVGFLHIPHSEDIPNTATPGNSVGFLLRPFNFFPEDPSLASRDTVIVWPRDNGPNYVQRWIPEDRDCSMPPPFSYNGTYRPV", "assay": "DAO inhibition (Amplex Red continuous fluorescence assay)", "details": "30 min pre-incubation at room temp; substrate histamine; read-out: Human DAO IC50", "how_it_was_run": "as §1"}, "[3]": {"molecular_target": "T3, Human MAO-B (Homo sapiens, UniProt P27338)", "T3 sequence (P27338 1-520)": "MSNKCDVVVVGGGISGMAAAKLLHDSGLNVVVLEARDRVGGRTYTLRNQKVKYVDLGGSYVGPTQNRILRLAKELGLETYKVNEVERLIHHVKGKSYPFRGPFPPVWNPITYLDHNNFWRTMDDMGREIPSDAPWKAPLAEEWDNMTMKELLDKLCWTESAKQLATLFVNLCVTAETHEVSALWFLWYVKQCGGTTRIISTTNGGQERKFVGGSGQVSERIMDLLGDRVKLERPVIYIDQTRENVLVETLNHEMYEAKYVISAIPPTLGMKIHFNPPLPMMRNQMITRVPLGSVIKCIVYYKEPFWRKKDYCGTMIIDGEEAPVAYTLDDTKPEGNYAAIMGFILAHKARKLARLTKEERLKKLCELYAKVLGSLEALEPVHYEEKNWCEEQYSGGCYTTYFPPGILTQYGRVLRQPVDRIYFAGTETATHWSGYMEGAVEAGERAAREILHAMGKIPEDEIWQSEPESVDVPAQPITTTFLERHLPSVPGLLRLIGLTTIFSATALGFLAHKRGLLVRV", "assay": "MAO-B inhibition (Amplex Red continuous fluorescence assay)", "details": "30 min pre-incubation at room temp; substrate benzylamine; read-out: Human MAO-B IC50", "how_it_was_run": "as §1"}, "[4]": {"molecular_target": "T4, Human VAP-1 (Homo sapiens, UniProt Q16853)", "T4 sequence (Q16853 1-763)": "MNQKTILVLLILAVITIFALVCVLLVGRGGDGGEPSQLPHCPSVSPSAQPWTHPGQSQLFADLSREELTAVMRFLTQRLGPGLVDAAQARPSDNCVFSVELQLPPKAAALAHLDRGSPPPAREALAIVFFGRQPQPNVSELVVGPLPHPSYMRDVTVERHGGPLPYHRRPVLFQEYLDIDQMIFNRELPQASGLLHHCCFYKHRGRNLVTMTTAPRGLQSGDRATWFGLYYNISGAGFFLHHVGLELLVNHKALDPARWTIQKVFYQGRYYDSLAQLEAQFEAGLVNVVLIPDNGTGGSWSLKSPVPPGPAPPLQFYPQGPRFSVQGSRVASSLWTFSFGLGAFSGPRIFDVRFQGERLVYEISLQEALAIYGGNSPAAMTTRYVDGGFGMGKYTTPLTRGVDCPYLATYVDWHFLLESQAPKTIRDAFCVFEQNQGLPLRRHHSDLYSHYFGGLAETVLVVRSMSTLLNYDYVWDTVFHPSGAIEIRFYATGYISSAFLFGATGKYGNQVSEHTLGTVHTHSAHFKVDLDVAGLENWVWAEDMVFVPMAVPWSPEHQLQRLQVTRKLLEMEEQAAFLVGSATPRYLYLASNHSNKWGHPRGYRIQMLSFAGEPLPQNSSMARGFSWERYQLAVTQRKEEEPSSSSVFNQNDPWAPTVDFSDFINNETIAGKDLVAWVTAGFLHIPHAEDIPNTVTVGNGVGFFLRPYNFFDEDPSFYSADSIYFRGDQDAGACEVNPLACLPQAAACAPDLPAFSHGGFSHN", "assay": "VAP-1 inhibition assay (Amplex Red continuous fluorescence assay)", "details": "30 min pre-incubation at 37° C.; substrate benzylamine; read-out: Human VAP-1 IC50", "how_it_was_run": "as §1"}}, "data": [{"smiles": "NC/C(=C/F)COc1cnc(N2CC[C@H](O)C2)nc1", "note": "[Compound 80]", "values": [{"measurement": "IC50", "setting": "[1]", "value": "> 10", "unit": "µM"}, {"measurement": "IC50", "setting": "[2]", "value": "< 3", "unit": "µM"}, {"measurement": "IC50", "setting": "[3]", "value": "> 10", "unit": "µM"}, {"measurement": "IC50", "setting": "[4]", "value": "< 3", "unit": "µM"}]}, {"smiles": "CO[C@H]1CCN(c2ncc(OC/C(=C/F)CN)cn2)C1", "note": "[Compound 81]", "values": [{"measurement": "IC50", "setting": "[1]", "value": "> 10", "unit": "µM"}, {"measurement": "IC50", "setting": "[2]", "value": "< 3", "unit": "µM"}, {"measurement": "IC50", "setting": "[3]", "value": "> 10", "unit": "µM"}, {"measurement": "IC50", "setting": "[4]", "value": "< 3", "unit": "µM"}]}, {"smiles": "CCC(=O)Nc1ccc(OC/C(=C/F)CN)cc1", "note": "[Compound 82, (E)-N-(4-((2-(aminomethyl)-3-fluoroalkyl)oxy)phenyl)propionamide]", "values": [{"measurement": "IC50", "setting": "[1]", "value": "3 to 10", "unit": "µM"}, {"measurement": "IC50", "setting": "[2]", "value": "3 to 10", "unit": "µM"}, {"measurement": "IC50", "setting": "[3]", "value": "< 3", "unit": "µM"}, {"measurement": "IC50", "setting": "[4]", "value": "< 3", "unit": "µM"}]}]}
